Assay: xn = mol fraction of the nth substance listed
Settings: Fluid (supercritical or subcritical phases), Taylor-Aris chromatographic method, x1 = 0

Compound: Nc1ccccc1 [aniline] + O=C=O
- binary diffusion coefficient (313.16 K, 15000 kPa): 1.02e-08 m2/s
- binary diffusion coefficient (313.16 K, 20000 kPa): 9.75e-09 m2/s
- binary diffusion coefficient (313.16 K, 25000 kPa): 9.06e-09 m2/s
- binary diffusion coefficient (313.16 K, 30000 kPa): 8.43e-09 m2/s
- binary diffusion coefficient (313.16 K, 35000 kPa): 7.76e-09 m2/s
- binary diffusion coefficient (323.16 K, 15000 kPa): 1.18e-08 m2/s
- binary diffusion coefficient (323.16 K, 20000 kPa): 1.08e-08 m2/s
- binary diffusion coefficient (323.16 K, 25000 kPa): 9.66e-09 m2/s
- binary diffusion coefficient (323.16 K, 30000 kPa): 9.1e-09 m2/s
- binary diffusion coefficient (323.16 K, 35000 kPa): 8.7e-09 m2/s
- binary diffusion coefficient (333.16 K, 15000 kPa): 1.33e-08 m2/s
- binary diffusion coefficient (333.16 K, 20000 kPa): 1.19e-08 m2/s
- binary diffusion coefficient (333.16 K, 25000 kPa): 1.1e-08 m2/s
- binary diffusion coefficient (333.16 K, 30000 kPa): 1.02e-08 m2/s
- binary diffusion coefficient (333.16 K, 35000 kPa): 9.47e-09 m2/s

Compound: Cc1cc(C)cc(C)c1 [1,3,5-trimethylbenzene] + O=C=O
- binary diffusion coefficient (313.16 K, 15000 kPa): 1.04e-08 m2/s
- binary diffusion coefficient (313.16 K, 20000 kPa): 9.15e-09 m2/s
- binary diffusion coefficient (313.16 K, 25000 kPa): 8.21e-09 m2/s
- binary diffusion coefficient (313.16 K, 30000 kPa): 7.78e-09 m2/s
- binary diffusion coefficient (313.16 K, 35000 kPa): 7.46e-09 m2/s
- binary diffusion coefficient (323.16 K, 15000 kPa): 1.19e-08 m2/s
- binary diffusion coefficient (323.16 K, 20000 kPa): 1.11e-08 m2/s
- binary diffusion coefficient (323.16 K, 25000 kPa): 9.33e-09 m2/s
- binary diffusion coefficient (323.16 K, 30000 kPa): 9.23e-09 m2/s
- binary diffusion coefficient (323.16 K, 35000 kPa): 8.6e-09 m2/s
- binary diffusion coefficient (333.16 K, 15000 kPa): 1.42e-08 m2/s
- binary diffusion coefficient (333.16 K, 20000 kPa): 1.23e-08 m2/s
- binary diffusion coefficient (333.16 K, 25000 kPa): 1.15e-08 m2/s
- binary diffusion coefficient (333.16 K, 30000 kPa): 1.04e-08 m2/s
- binary diffusion coefficient (333.16 K, 35000 kPa): 9.89e-09 m2/s

Compound: C=Cc1ccccc1 [styrene] + O=C=O
- binary diffusion coefficient (313.16 K, 15000 kPa): 1.19e-08 m2/s
- binary diffusion coefficient (313.16 K, 20000 kPa): 1.08e-08 m2/s
- binary diffusion coefficient (313.16 K, 25000 kPa): 9.58e-09 m2/s
- binary diffusion coefficient (313.16 K, 30000 kPa): 8.74e-09 m2/s
- binary diffusion coefficient (313.16 K, 35000 kPa): 8.27e-09 m2/s
- binary diffusion coefficient (323.16 K, 15000 kPa): 1.32e-08 m2/s
- binary diffusion coefficient (323.16 K, 20000 kPa): 1.12e-08 m2/s
- binary diffusion coefficient (323.16 K, 25000 kPa): 1.06e-08 m2/s
- binary diffusion coefficient (323.16 K, 30000 kPa): 9.2e-09 m2/s
- binary diffusion coefficient (323.16 K, 35000 kPa): 8.77e-09 m2/s
- binary diffusion coefficient (333.16 K, 15000 kPa): 1.55e-08 m2/s
- binary diffusion coefficient (333.16 K, 20000 kPa): 1.41e-08 m2/s
- binary diffusion coefficient (333.16 K, 25000 kPa): 1.22e-08 m2/s
- binary diffusion coefficient (333.16 K, 30000 kPa): 1.09e-08 m2/s
- binary diffusion coefficient (333.16 K, 35000 kPa): 1.02e-08 m2/s
